Converted amounts (≈) assume the structure as drawn. “Also recorded” adds a separate entry of the source. Like-named read-outs stand apart in the source and are kept apart here.
Key:
[1] = tested on: efflux pumps of P. aeruginosa; experiment: Ethidium bromide efflux assay; type: cell-based, Pseudomonas aeruginosa; conditions: for efflux pump inhibition (intracellular EtBr accumulation): 60 min, compound 3 at 53.1 and 106.2 µg/mL
From the text: We performed the ethidium bromide (EtBr) efflux assay to assess the ability of test compounds to inhibit efflux pumps of P. aeruginosa. The DNA-intercalating dye EtBr is a common substrate of the resistance-nodulation-cell division (RND) family. The dye only fluoresces when bound to DNA in the cytoplasm. The disruption of efflux pumps such as the RND pump AcrB enhances the accumulation of the substrate within the cells over time until it reaches a steady state. (Figure 5C).
To investigate the efflux pump-inhibiting activity of test compounds on wild-type PAO1, an efflux assay using ethidium bromide (EtBr) as a substrate was performed as previously described. An overnight culture of PAO1 in LB broth was incubated in a shaker at 37 °C until it reached an OD600 of 0.5. The bacterial cells were washed with phosphate buffered saline (PBS) and centrifuged, and the pellet was resuspended in PBS. Test compounds, 5 µL, were added to the flat-bottomed, black 96-well-plate followed by addition of 90 µL of the bacterial suspension. EtBr at a non-toxic concentration (5 µL, 2 µg/mL) was added before the plates were read. The fluorescence reading was recorded at an excitation of 530 nm and emission of 590 nm every min for 60 min using a BioTek Synergy H1 Hybrid microplate reader. Carbonyl cyanide m-chlorophenyl hydrazone (CCCP), a chemical inhibitor of efflux pumps, was used as the positive control, and DMSO (1–2%) was used as the vehicle control, as compounds were dissolved in DMSO. Untreated cells were used as the negative control.

PAO1 biofilms = experiment: Fluorescence microscopy of biofilms (SYTO9/propidium iodide); type: cell-based, Pseudomonas aeruginosa
Protocol: (§1) Biofilms of wild-type PAO1 and isogenic biofilm matrix component mutants were treated with ianthelliformisamines or ciprofloxacin alone and the combinations. Their biofilms were simultaneously stained with SYTO9 (green) and propidium iodide (red). Cells with intact membranes were stained green, while cells with compromised membranes were stained red.
(§2) For biofilm bacteria imaging, bacteria were cultured, treated with test compounds, and washed, as previously mentioned in the biofilm inhibition assay. The biofilm bacteria were stained using a LIVE/DEAD BacLight bacterial viability kit (Molecular Probes, Inc., Eugene, OR, USA), which consists of SYTO9 (green; staining cells with intact membrane) and propidium iodide (red; staining cells with compromised membrane). Images were captured using a high-content imaging system Operetta CLS (Perkin Elmer, Waltham, MA, USA) with a 60× water-immersion objective.

PDO300 biofilms = experiment: as above; type: cell-based, Pseudomonas aeruginosa; conditions: for biofilm after treatment: compound alone
Protocol: as §1, §2

PAO1ΔpslA biofilms = experiment: as above; type: cell-based, Pseudomonas aeruginosa
Protocol: as §1, §2

[2] = Stability in liver microsomes; type: in vitro ADME, human; conditions: for half-life at 1 µM: both sexes, human, liver microsomes
Protocol: (§3) The metabolic assays were performed based on a previously described method. […] The final organic (ACN) concentration in the incubation tubes was 1%. […] Samples (50 μL) were removed at t = 0 (immediately after reaction start), 5, 10, 20, 30, and 60 min. Samples were added to microcentrifuge tubes containing 150 μL of ice-cold acetonitrile containing internal standard (clotrimazole; for […] = 10.0 ng/mL + 0.5% (v/v) formic acid; for 1 and 2 = 2.0 ng/mL + 0.5% (v/v) formic acid; for VPL = 20.0 ng/mL + 0.1% (v/v) formic acid). Tubes were centrifuged (13,000× g, 5 min), and ~135 μL of supernatant transferred to polypropylene 96-well plates for analysis.
(§4) Chromatographic separation was achieved using a biphenyl column [Kinetix, 100 mm × 4.6 mm, 2.6 μm; Phenomenex (Sydney, Australia)], coupled with a gradient elution with mobile phases containing acetonitrile/H2O/0.5% formic acid. Analysis was conducted in positive ion multiple reaction monitoring (MRM) mode with argon as the collision gas. Optimum MS/MS conditions were established prior to incubations by direct infusion of individual solutions of 1, 2, and 3 into the LC-MS/MS. To ensure adequate sensitivity of analysis, multiple mass transitions were summed for all three test compounds.
(§5) LN % remaining vs. time data for each data set were fitted to an exponential decay function to determine the first-order rate constant (k) for substrate depletion. For Equations (5)–(7), scaling parameters used were described elsewhere.

planktonic PAO1 = experiment: Checkerboard assay with antibiotics; type: cell-based, Pseudomonas aeruginosa; parameters: MIC of ciprofloxacin reduced to: unit not given beside the values; conditions: for synergy with ciprofloxacin: planktonic PAO1; for MIC of ciprofloxacin reduced to: in combination with compound
Protocol: The synergistic activity of compounds with antibiotics, including tobramycin, ciprofloxacin and meropenem, was investigated by a checkerboard dilution assay. Briefly, mid-log cultures of P. aeruginosa were diluted 1:1250 before being added to the plates. Next, 90 µL aliquots of diluted cells were added to a 96-well Costar (Corning) plate containing either 10 µL of compounds and/or 10 µL of antibiotics. Compounds and antibiotics were tested at 11 and 7 concentrations, respectively. The first row contained antibiotics alone, while the first column contained compounds alone, and the remaining columns were for combinations.

P. aeruginosa = tested on: P. aeruginosa; parameters: method as in PMID 24801877; conditions: previous work, different culture medium and inoculum possible; cited from earlier work
PAO1ΔpelF biofilms = type: cell-based, Pseudomonas aeruginosa
Protocol: as §1, §2

[3] = Stability in liver microsomes; type: in vitro ADME, mouse; conditions: for hepatic extraction: calculated from microsomal half-life, fu = 1 assumed; for level of hepatic extraction: classification system of Houston 1994; for half-life at 1 µM: male, CD-1, mouse, liver microsomes
Protocol: as §3, §4, §5

[4] = compound alone (1 86.2, 2 69.1, 3 53.1/106.2 µg/mL)
[5] = in combination with ciprofloxacin
[6] = pH 7.4, with NADPH regeneration system, 1.0 µM, 0.5 mg/mL microsomes, read-out: half-life of degradation
[7] = pH 7.4, no NRS, compound 1 between 20 and 60 min, compound 2 over 30 min, read-out: half-life of degradation, negative control (no NRS added)

SMILES	efflux pump inhibition (intracellular EtBr accumulation) [1]	interaction with ciprofloxacin on biofilms (PAO1 biofilms)	biofilm after treatment (PAO1 biofilms; [4])	biofilm after treatment (PDO300 biofilms)	metabolic stability [2]	synergy with ciprofloxacin (planktonic PAO1)	MIC (P. aeruginosa)	effect in combination with ciprofloxacin (PAO1ΔpelF biofilms)	metabolic stability [3]	effect in combination with ciprofloxacin (PDO300 biofilms)	biofilm after treatment (PAO1ΔpslA biofilms; [5])	enhancement of the activity of tobramycin or meropenem (planktonic PAO1)	MIC of ciprofloxacin reduced to (planktonic PAO1)	hepatic extraction [3]	level of hepatic extraction [3]	half-life at 1 µM [3, 7]	half-life at 1 µM [3, 6]	further results
COc1c(Br)cc(/C=C/C(=O)NCCCNCCCCNCCCNC(=O)/C=C/c2cc(Br)c(OC)c(Br)c2)cc1Br [Compound 3, ianthelliformisamine C]	is an efflux pump inhibitor	antagonistically	slightly reduced	completely eradicated	metabolically stable	limited synergy	~ 26.55 µg/mL	no effect	metabolically stable									level of intracellular EtBr accumulation relative to CCCP [1]: greater than that mediated by reference compound CCCP; efflux pump inhibition (intracellular EtBr accumulation) ([1]; listed as ianthelliformisamine C): inhibited the efflux pump; biofilm after treatment (PAO1ΔpslA biofilms; alone): completely dispersed the biofilm; biofilm after treatment (PAO1ΔpelF biofilms; compound alone): no effect
COc1c(Br)cc(/C=C/C(=O)NCCCNCCCCN)cc1Br [Compound 2, ianthelliformisamine B]	comparable EtBr accumulation with untreated bacteria	no effect	remained unaffected	slightly reduced	moderate degradation; also recorded: moderately degraded	worked synergistically	> 138.2 µg/mL	synergistic effects	moderate degradation; also recorded: moderately degraded	synergistic effects	eradicated	did not enhance	1/4	0.42	intermediate	90 min	42.8 ± 7.6 min	half-life at 1 µM ([2]; pH 7.4, no NRS, 30-min incubation, read-out: half-life of degradation, negative control (no NRS added)): 103 min; half-life at 1 µM [2, 6]: 35.7 ± 2.1 min; hepatic extraction ([2]; calculated from microsomal half-life, fu = 1 assumed): 0.61; level of hepatic extraction ([2]; classification system of Houston 1994): intermediate
COc1c(Br)cc(/C=C/C(=O)NCCCNCCCCNCCCN)cc1Br [Compound 1, ianthelliformisamine A]	comparable EtBr accumulation with untreated bacteria	synergistically	remained unaffected	slightly reduced	substantial instability; also recorded: significant instability	worked synergistically	172.4 µg/mL (≈ 331 µM)	synergistic effects	moderate degradation	synergistic effects	eradicated	did not enhance	1/3	0.48	intermediate	~45 min	38.2 min	biofilm after treatment (PAO1 biofilms; compound 86.2 µg/mL + ciprofloxacin 1/3 MIC): Complete biofilm inhibition
